# Results from US20100209536A1, “Methods and Kits for Use in the Treatment and Prevention of Diseases or Conditions of the Immune System or Infectious Diseases” (The Brigham and Women's Hospital, Inc., priority 2006, published 2010).
# How the values were obtained:
# Type in all cases: in vivo, human
# [1] = tested on: any wheeze in the first 2 yrs; test: Project Viva antioxidant study: maternal intake and any wheeze in the first 2 yrs; details: for Any wheeze in the first 2 yrs, Univariate Model OR (95% CI) / Any wheeze in the first 2 yrs, Multivariable Model OR (95% CI): including supplements; for Association of total maternal intake with any wheeze in univariable models: total intakes
# Description: (§1) Study subjects were enrolled in Project Viva, as described above. Recruitment and retention procedures have previously been published (Gillman et al., J. Pediatr. 144:240-245, 2004). We obtained information directly from participants and from medical records as detailed previously (Rifas-Shiman, Paediatr. Perinat. Epidemiol. 20:35-42, 2006). Data collected from interviews and questionnaires included demographics (infant gender, maternal marital status, and race), socioeconomic status (education and household income), and reproductive history (maternal gravidity, pre-pregnancy height and body mass index, and smoking). Questionnaires that inquired about infant health, feeding, and the home environment were administered when the child was 6 months, 1 year, and 2 years of age. Among 2,128 delivered infants in Project Viva, we excluded 228 participants because of missing first and second trimester diet assessment data and an additional 37 participants with a gestation of less than 34 completed weeks.
# (§2) We assessed maternal diet using semi-quantitative food-frequency questionnaires (FFQ) validated for use during pregnancy (Fawzi et al., Ann. Epidemiol. 14:754-762, 2004), and used in several of our previous studies of maternal diet and offspring outcomes (Oken et al., Am. J. Epidemiol. 160:774-783, 2004; Huh et al., Int. J. Epidemiol. 34:378-384, 2005; Gillman et al., Circulation 110:1990-1995, 2004). As noted above, the FFQ used at the 1st visit reflected intakes in the 1st trimester; the time referent was “during this pregnancy,” that is from the date of the last menstrual period until the assessment, at an average of about 10 weeks gestation. To assess vitamin and supplement intake during the 1st trimester, we administered a separate interview that queried dose, duration, and brand/type of multivitamin, prescribed prenatal vitamins, and supplements. Also as noted above, the FFQ used at the 2nd visit (26 to 28 weeks of gestation) reflected intakes during the 2nd trimester; the time referent was “during the past 3 months.” The 2nd trimester instrument was the same as that for the 1st trimester except that we assessed use of vitamins/supplements as part of the self-completed FFQ.
# (§3) To calculate intake of nutrients, we again used the Harvard nutrient composition database, which contains food composition values from the U.S. Department of Agriculture, supplemented by other data sources (U.S. Department of Agriculture ARS. USDA National Nutrient Database for Standard Reference, Release 14, 5R14; 2001). All nutrients were adjusted for total energy intake using the nutrient residuals method (Willett, Am. J. Clin. Nutr. 45:354-360, 1987). Mean nutrient intakes from the 1st and 2nd trimesters were used as the exposure in the analyses. If a participant only completed one FFQ, then nutrients calculated from that questionnaire were taken as the exposure of interest. One thousand one hundred and thirty-five (88.0%) of the 1,290 participants completed both FFQs, 96 (7.4%) completed the first trimester FFQ only, and 59 (4.6%) completed the second trimester FFQ only.
# (§4) We ascertained the wheeze outcomes from questions from the First Year and Second Year Questionnaires: “since your child was born/since your child was […], has he/she ever had wheezing (or whistiling in the chest)?” “Any wheeze” was defined as a positive response to the question at either the first or second year questionnaire. “Recurrent wheeze” was defined as positive responses to the questions in both the first and second year questionnaires. […] “Respiratory infections” was defined as positive responses to one of three questions: “since your child was born/12 months old, have you been told by a health care professional (such as a doctor, physician assistant, or nurse practitioner) that your child has: (a) bronchiolitis; (b) pneumonia; (c) bronchitis, croup, or any other respiratory infection?” on either the first or second year questionnaires. […]
# [2] = tested on: recurrent wheeze in the first 2 yrs; test: Project Viva antioxidant study: maternal intake and recurrent wheeze in the first 2 yrs; details: including supplements
# Description: as §1, §2, §3, §4
# [3] = tested on: respiratory infections in the 2-year old children; test: Project Viva antioxidant study: maternal intake and respiratory infections in 2-year old children
# Description: as §1
# We assessed maternal diet using semi-quantitative food-frequency questionnaires (FFQ) validated for use during pregnancy (Fawzi et al., Ann. Epidemiol. 14:754-762, 2004), and used in several of our previous studies of maternal diet and offspring outcomes (Oken et al., Am. J. Epidemiol. 160:774-783, 2004; Huh et al., Int. J. Epidemiol. 34:378-384, 2005; Gillman et al., Circulation 110:1990-1995, 2004). As noted above, the FFQ used at the 1st visit reflected intakes in the 1st trimester; the time referent was “during this pregnancy,” that is from the date of the last menstrual period until the assessment, at an average of about 10 weeks gestation. […] Also as noted above, the FFQ used at the 2nd visit (26 to 28 weeks of gestation) reflected intakes during the 2nd trimester; the time referent was “during the past 3 months.” The 2nd trimester instrument was the same as that for the 1st trimester except that we assessed use of vitamins/supplements as part of the self-completed FFQ. […]
# [4] = 2nd vs 1st (lowest) quartile of maternal intake, calorie adjusted, n = 1,161
# [5] = 2nd vs 1st (lowest) quartile of maternal intake
# [6] = 3rd vs 1st (lowest) quartile of maternal intake
# [7] = 4th (highest) vs 1st (lowest) quartile of maternal intake
# [8] = 2nd vs 1st (lowest) quartile of maternal intake, n = 1,038
SMILES,"Any wheeze in the first 2 yrs, Univariate Model OR (95% CI) [1, 4]","Any wheeze in the first 2 yrs, Multivariable Model OR (95% CI) [1, 5]","Any wheeze in the first 2 yrs, Multivariable Model OR (95% CI) [1, 6]","Any wheeze in the first 2 yrs, Univariate Model OR (95% CI) [1, 6]","Any wheeze in the first 2 yrs, Multivariable Model OR (95% CI) [1, 7]","Any wheeze in the first 2 yrs, Univariate Model OR (95% CI) [1, 7]",Association of total maternal intake with any wheeze in univariable models [1],"Recurrent wheeze in the first 2 yrs, Multivariable Model OR (95% CI) [2, 5]","Recurrent wheeze in the first 2 yrs, Univariate Model OR (95% CI) [2, 8]","Recurrent wheeze in the first 2 yrs, Multivariable Model OR (95% CI) [2, 6]","Recurrent wheeze in the first 2 yrs, Univariate Model OR (95% CI) [2, 6]","Recurrent wheeze in the first 2 yrs, Multivariable Model OR (95% CI) [2, 7]","Recurrent wheeze in the first 2 yrs, Univariate Model OR (95% CI) [2, 7]",Association of total maternal intake with respiratory infections in the children [3]
"[Cu] [Copper, copper]","0.78 (0.55, 1.10)","0.93 (0.64, 1.35)","0.91 (0.62, 1.34)","0.71 (0.50, 1.01)","0.90 (0.61, 1.33)","0.69 (0.49, 0.99)^5",associated with lower risks,"0.75 (0.43, 1.30)","0.63 (0.38, 1.03)","1.02 (0.60, 1.75)","0.67 (0.41, 1.09)","0.90 (0.51, 1.59)","0.57 (0.34, 0.95)^5",–
"Nc1nc2ncc(CNc3ccc(C(=O)N[C@@H](CCC(=O)O)C(=O)O)cc3)nc2c(=O)[nH]1 [Folic acid, folic acid]","0.94 (0.67, 1.32)","1.13 (0.78, 1.64)","0.79 (0.54, 1.16)","0.63 (0.44, 0.89)^5","0.89 (0.60, 1.31)","0.64 (0.45, 0.91)^5",associated with lower risks,"0.93 (0.55, 1.58)","0.77 (0.48, 1.24)","0.75 (0.43, 1.28)","0.58 (0.35, 0.95)^5","0.68(0.38, 1.22)","0.46 (0.27, 0.78)^5",–
"CC(C)=CCC/C(C)=C/C=C/C(C)=C/C=C/C(C)=C/C=C/C=C(C)/C=C/C=C(C)/C=C/C=C(\C)CCC=C(C)C [Lycopene, lycopene]","1.27 (0.90, 1.80)","1.50 (1.02, 2.19)","1.67 (1.14, 2.45)","1.26 (0.90, 1.79)","0.96 (0.64, 1.42)","0.83 (0.58, 1.19)",–,"1.06 (0.62, 1.83)","0.88 (0.53, 1.46)","1.40 (0.82, 2.40)","1.01 (0.62, 1.64)","0.75 (0.42, 1.33)","0.70 (0.42, 1.17)",–
"O=C1O[C@H]([C@@H](O)CO)C(O)=C1O [Vitamin C, ascorbic acid]","0.82 (0.58, 1.15)","0.93 (0.65, 1.35)","0.84 (0.58, 1.22)","0.65 (0.46, 0.93)^5","0.79 (0.54, 1.15)","0.67 (0.47, 0.94)^5",associated with lower risks,"1.05 (0.62, 1.77)","1.02 (0.63, 1.65)","1.04 (0.60, 1.78)","0.85 (0.52, 1.40)","0.75 (0.41, 1.36)","0.56 (0.32, 0.97)^5",not associated
"CC1=CCCC(C)(C)C1/C=C/C(C)=C/C=C/C(C)=C/C=C/C=C(C)/C=C/C=C(C)/C=C/C1=C(C)CCCC1(C)C (stereo not drawn) [α Carotene, α-carotene]","0.77 (0.54, 1.09)","0.87 (0.60, 1.26)","1.00 (0.69, 1.45)","0.82 (0.58, 1.16)","0.92 (0.63, 1.34)","0.75 (0.53, 1.06)",–,"1.22 (0.71, 2.09)","0.98 (0.60, 1.60)","1.01 (0.57, 1.80)","0.74 (0.43, 1.25)","1.26 (0.72, 2.21)","0.88 (0.53, 1.45)",–
"CC1=C(/C=C/C(C)=C/C=C/C(C)=C/C=C/C=C(C)/C=C/C=C(C)/C=C/C2=C(C)CCCC2(C)C)C(C)(C)CCC1 [β Carotene, β-carotene]","1.01 (0.71, 1.41)","1.28 (0.88, 1.88)","1.21 (0.82, 1.77)","0.85 (0.60, 1.20)","0.98 (0.66, 1.47)","0.71 (0.50, 1.02)",associated with lower risks,"1.24 (0.72, 2.13)","0.85 (0.52, 1.37)","1.23 (0.72, 2.13)","0.76 (0.46, 1.24)","1.01 (0.56, 1.81)","0.58 (0.34, 0.97)^5",–
CC1=C(/C=C/C(C)=C/C=C/C(C)=C/C=C/C=C(C)/C=C/C=C(C)/C=C/C2=C(C)C[C@@H](O)CC2(C)C)C(C)(C)CCC1 [β Cryptoxanthin],"0.80 (0.57, 1.13)","0.82 (0.57, 1.18)","0.81 (0.56, 1.18)","0.72 (0.51, 1.02)","0.97 (0.67, 1.41)","0.92 (0.66, 1.30)",–,"1.33 (0.78, 2.28)","1.36 (0.82, 2.24)","0.97 (0.55, 1.72)","0.95 (0.56, 1.63)","1.28 (0.73, 2.26)","1.05 (0.62, 1.78)",–
